Experimental data reported in US6787525B1, “Glyceryl nucleotides, method for the production thereof and their use” (priority 1998, dated 2004).

Columns and labels:
HIV = assay: In-vitro anti-HIV effect: inhibition of HIV-induced cell death of T4 lymphocytes (CEM-SS), XTT; assay type: cell-based; settings: 6 days
Experimental: (§1) T4 lymphocytes (cell line: CEM-SS), which are killed by HIV within two replication cycles, are used as the test system. That which is detected is the inhibition of cell death. The compound according to the invention is dissolved in DMSO and this solution is diluted with cell culture medium in the ratio 1:100. […] All the cell cultures are examined spectrophotometrically in order to quantify production of formazan. In addition to this, individual cultures are examined microscopically in order to confirm the anti-HIV activity. The virus-infected cells which have been treated with the compound according to the invention are compared with the standard on the same plate. The in-vitro anti-HIV activity data, which were determined within the context of a National Cancer Institute Developmental Therapeutics Program, are summarized in the following table.

[1] = tested on: T4 lymphocytes (cell line: CEM-SS); assay: Toxicity control: uninfected T4 lymphocytes (CEM-SS) with compound only, XTT; assay type: cell-based; settings: 6 days
Experimental: as §1

CCCCCCCCCCCCCCCC(=O)Nc1ccn(C2CCC(COP(=O)(O)OCC(COP(=O)(O)OCC3OC(n4cc(C)c(=O)[nH]c4=O)CC3N=[N+]=[N-])OC(=O)CCCCCCCCCCCCCCC)O2)c(=O)n1 (racemic) [NSC 704532-F/1, N^4-palmitoyl-2′,3′-dideoxycytidylyl-(5′→1)-2-O-palmitoyl-rac-glycerylyl-(3→5′)-3′-azido-2′,3′-dideoxythymidine]
Percent of control infected (HIV; Dose 1.00 * 10^−6 molar): 113.49%
Percent protection (HIV; Dose 1.00 * 10^−6 molar, HIV-infected CEM-SS): 114.05%
Percent of control infected (HIV; Dose 1.00 * 10^−7 molar): 106.07%
Percent protection (HIV; Dose 1.00 * 10^−7 molar, HIV-infected CEM-SS): 106.32%
Percent of control infected (HIV; Dose 1.00 * 10^−8 molar): 23.62%
Percent protection (HIV; Dose 1.00 * 10^−8 molar, HIV-infected CEM-SS): 20.44%
Percent of control infected (HIV; Dose 1.00 * 10^−9 molar): 4.21%
Percent protection (HIV; Dose 1.00 * 10^−9 molar, HIV-infected CEM-SS): 0.22%
Percent of control infected (HIV; Dose 3.16 * 10^−7 molar): 104.16%
Percent protection (HIV; Dose 3.16 * 10^−7 molar, HIV-infected CEM-SS): 104.33%
Percent of control infected (HIV; Dose 3.16 * 10^−8 molar): 80.22%
Percent protection (HIV; Dose 3.16 * 10^−8 molar, HIV-infected CEM-SS): 79.40%
Percent of control infected (HIV; Dose 3.17 * 10^−9 molar): 14.25%
Percent protection (HIV; Dose 3.17 * 10^−9 molar, HIV-infected CEM-SS): 10.68%
Percent of control infected (HIV; Dose 3.17 * 10^−10 molar): 5.80%
Percent protection (HIV; Dose 3.17 * 10^−10 molar, HIV-infected CEM-SS): 1.88%
EC50 (HIV; HIV-infected CEM-SS, read-out: 50% protection from infection (EC5.)): 17.9 nM
IC50 ([1]; read-out: 50% cell growth (IC50)): > 1000 nM
Percent of control uninfected ([1]; Dose 1.00 * 10^−6 molar): 119.96%
Percent of control uninfected ([1]; Dose 1.00 * 10^−7 molar): 112.26%
Percent of control uninfected ([1]; Dose 1.00 * 10^−8 molar): 99.64%
Percent of control uninfected ([1]; Dose 1.00 * 10^−9 molar): 105.03%
Percent of control uninfected ([1]; Dose 3.16 * 10^−7 molar): 112.02%
Percent of control uninfected ([1]; Dose 3.16 * 10^−8 molar): 104.96%
Percent of control uninfected ([1]; Dose 3.17 * 10^−9 molar): 101.22%
Percent of control uninfected ([1]; Dose 3.17 * 10^−10 molar): 105.43%
